As a reminder, the IC50 is the concentration that gives 50% inhibition.

Entries after “also recorded” stand apart in the source; their conditions may differ.

One series is described as follows: Solubility in solvents. Format: physicochemical. An excerpt:
The compound is amorphous yellow powder.

Series [1] concerns the target T1, crude rat lens aldose reductase (Rattus norvegicus, UniProt P07943).
T1 construct: from tissue; host or cells: rat eye lens homogenate, 10,000 r.p.m. supernatant
The experiment in a line: Rat lens aldose reductase inhibition, decrease in absorbance at 340 nm. The note with it: as stated in embodiment b50; read-out: IC50 against crude rat lens aldose reductase. Format: biochemical. How it is done:
Lens are collected from rat eyes and homogenised with sodium, potassium phosphate buffer (0.135 M, pH 7.0) containing 0.5 mM of phenyl methyl sulphonyl fluoride and 10 mM of p-mercaptoethanol. The homogenate is centrifuged at 10,000 r.p.m for 30 minutes at 4° C. The supernatant is taken as enzyme source. Enzyme reaction is carried out at 25° C. in a quartz cuvette with a 1-cm light path. The assay mixture contained 100 μL of nicotinamide adenine dinucleotide phosphate tetra sodium salt (from a stock solution of 9.6 mM), 100 μL of DL-glyceraldehyde (from a stock solution of 250 mM), 10 μL of inhibitor dissolved in dimethyl sulphoxide, sodium-potassium-phosphate buffer (0.135 M, pH 7.0) to make up the total volume to […] and the reaction is initiated by the addition of 200 μL of enzyme solution. The enzyme reaction is monitored by the decrease in absorbency at 340 nm and compared with enzyme reaction without inhibitor.

Series [2] addresses T2, purified soybean lipoxygenase (LOX-1) (Glycine max, UniProt P08170).
T2 construct: Soybean lipoxygenase (LOX-1) is purified according to the method of Axelrod et al; from tissue; host or cells: soybean seeds (Hardee variety), dehulled and defatted
T2 sequence (P08170 1-839): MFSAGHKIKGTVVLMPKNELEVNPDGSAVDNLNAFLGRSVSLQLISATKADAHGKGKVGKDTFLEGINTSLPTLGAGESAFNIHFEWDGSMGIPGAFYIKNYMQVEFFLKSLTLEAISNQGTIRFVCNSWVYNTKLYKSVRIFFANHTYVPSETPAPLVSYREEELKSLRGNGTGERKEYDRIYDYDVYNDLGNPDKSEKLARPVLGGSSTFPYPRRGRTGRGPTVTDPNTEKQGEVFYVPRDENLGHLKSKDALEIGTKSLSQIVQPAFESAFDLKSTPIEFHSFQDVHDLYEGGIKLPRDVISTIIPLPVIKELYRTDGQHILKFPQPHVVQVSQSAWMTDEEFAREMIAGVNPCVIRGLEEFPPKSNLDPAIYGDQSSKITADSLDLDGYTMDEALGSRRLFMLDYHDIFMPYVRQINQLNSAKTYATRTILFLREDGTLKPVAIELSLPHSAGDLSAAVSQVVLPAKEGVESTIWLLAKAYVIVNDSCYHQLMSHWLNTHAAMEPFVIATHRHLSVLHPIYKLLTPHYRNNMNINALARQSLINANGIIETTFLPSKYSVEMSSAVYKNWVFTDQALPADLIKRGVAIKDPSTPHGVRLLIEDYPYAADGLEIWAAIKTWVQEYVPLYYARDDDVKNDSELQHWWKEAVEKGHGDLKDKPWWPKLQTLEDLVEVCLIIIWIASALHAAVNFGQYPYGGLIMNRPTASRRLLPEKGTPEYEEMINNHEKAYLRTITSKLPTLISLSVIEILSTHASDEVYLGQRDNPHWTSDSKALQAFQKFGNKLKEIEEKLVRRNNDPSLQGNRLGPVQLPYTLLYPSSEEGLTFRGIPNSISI
The series is described as follows: Soybean lipoxygenase (LOX-1) inhibition, absorbance at 234 nm. The note with it: as stated in embodiment b50; read-out: IC50 against purified soybean lipoxygenase. Format: biochemical. How it is done:
Soybean lipoxygenase (LOX-1) is purified according to the method of Axelrod et al., lipoxygenase from soybeans. Methods in Enzymology 1981, 71, 441–451, using the Hardee variety of soybean, after dehulling and defatting by hexane. The substrate, sodium linoleate (10 mM) is prepared as follows:
To 70 mg of linoleic acid an equal weight of Tween-20 and 4 ml of oxygen free water is added and homogenized by drawing back and forth in a pasture pipette, avoiding air bubbles. Sufficient quantity of 0.5 N NaOH is added to this to yield a clear solution. The resulting sodium linoleate is divided into 1–2 mL portions in small screw cap vials, flushed with N2 before closing, and keep frozen until needed. Enzyme reaction is carried out at 25° C. in a quartz cuvette with a 1 cm light path. The assay mixture contained (2.975−x) ml of borate buffer (0.2 M, pH 9.0), 0.025 ml of sodium linoleate substrate, and x mL of enzyme. After each addition the mixture is stirred with a few strokes of a plastic paddler. The reference cuvette contained no enzyme. Absorption at 234 nm is recorded, and the reaction rate is determined from the slope of the straight-line portion of the curve.

Take `C/C=C/c1c(C)c(OC)c(C(=O)O)c(C(N)=O)c1O` [compound 1, 2-amido, 3-hydroxy, 4-propene, 5-methyl, 6-methoxy benzoic acid]: the “solubility in chloroform and hexane” value in “Solubility in solvents” (chloroform, hexane) is given as “sparingly soluble; also recorded: slightly soluble”. In addition, in “Solubility in solvents” (ethanol, methanol, ethyl acetate, dimethyl sulphoxide), the “solubility in organic solvents” value is on record as “soluble”. In addition, the “solubility in aqueous alkaline solution” value in the series “Solubility in solvents” (sodium bicarbonate, sodium carbonate, sodium hydroxide solution (b24 also potassium bicarbonate, potassium carbonate, lithium hydroxide, potassium hydroxide)) is on record as “soluble”. Besides, in “Solubility in solvents” (water), the solubility in water entry was “insoluble”. The 50% inhibitory concentration (IC50) worked out at 69 µM in series [1] and 79 µM in series [2].
